Publication PMC8842743 (Journal of Alzheimer's Disease Reports, 2022)

Tested on: healthy subjects
Experiment: Clinical liver safety laboratory data over time
Type: in vivo, human
Details: mean (SD)

Structure (SMILES): COc1cnc(C(=O)Nc2ccc(F)c([C@]34CN(c5ncc(F)cn5)C[C@H]3CSC(N)=N4)c2)cn1 [LY3202626]
- ALP (1 mg daily, Day 1 predose): 62.8 (7.6) U/L
- ALT (1 mg daily, Day 1 predose): 19.0 (11.8) U/L
- AST (1 mg daily, Day 1 predose): 18.4 (6.7) U/L
- Albumin (1 mg daily, Day 1 predose): 43.9 (1.5) g/L
- GGT (1 mg daily, Day 1 predose): 22.3 (14.8) U/L
- Total Bilirubin (1 mg daily, Day 1 predose): 10.7 (2.8) umol/L
- ALP (1 mg daily, Day 2): 62.2 (8.7) U/L
- ALT (1 mg daily, Day 2): 18.9 (11.8) U/L
- AST (1 mg daily, Day 2): 18.4 (6.5) U/L
- Albumin (1 mg daily, Day 2): 43.8 (3.0) g/L
- GGT (1 mg daily, Day 2): 21.8 (15.6) U/L
- Total Bilirubin (1 mg daily, Day 2): 10.7 (2.6) umol/L
- ALP (1 mg daily, Day 3): 62.3 (8.4) U/L
- ALT (1 mg daily, Day 3): 18.7 (10.6) U/L
- AST (1 mg daily, Day 3): 16.1 (4.7) U/L
- Albumin (1 mg daily, Day 3): 43.1 (2.4) g/L
- GGT (1 mg daily, Day 3): 20.9 (13.9) U/L
- Total Bilirubin (1 mg daily, Day 3): 8.9 (2.3) umol/L
- ALP (1 mg daily, Day 4): 64.7 (10.7) U/L
- ALT (1 mg daily, Day 4): 20.4 (10.1) U/L
- AST (1 mg daily, Day 4): 19.6 (5.5) U/L
- Albumin (1 mg daily, Day 4): 44.0 (2.4) g/L
- GGT (1 mg daily, Day 4): 21.4 (14.5) U/L
- Total Bilirubin (1 mg daily, Day 4): 7.4 (4.2) umol/L
- ALP (1 mg daily, Day 6): 61.0 (10.9) U/L
- ALT (1 mg daily, Day 6): 18.9 (7.0) U/L
- AST (1 mg daily, Day 6): 17.7 (4.8) U/L
- Albumin (1 mg daily, Day 6): 43.1 (2.4) g/L
- GGT (1 mg daily, Day 6): 19.4 (11.8) U/L
- Total Bilirubin (1 mg daily, Day 6): 8.5 (4.5) umol/L
- ALP (1 mg daily, Day 8): 62.4 (11.3) U/L
- ALT (1 mg daily, Day 8): 20.8 (8.4) U/L
- AST (1 mg daily, Day 8): 21.3 (13.2) U/L
- Albumin (1 mg daily, Day 8): 44.1 (2.0) g/L
- GGT (1 mg daily, Day 8): 18.8 (11.5) U/L
- Total Bilirubin (1 mg daily, Day 8): 7.9 (5.0) umol/L
- ALP (1 mg daily, Day 10): 62.6 (10.0) U/L
- ALT (1 mg daily, Day 10): 24.6 (19.6) U/L
- AST (1 mg daily, Day 10): 30.2 (39.0) U/L
- Albumin (1 mg daily, Day 10): 43.3 (2.2) g/L
- GGT (1 mg daily, Day 10): 18.7 (11.3) U/L
- Total Bilirubin (1 mg daily, Day 10): 7.2 (2.1) umol/L
- ALP (1 mg daily, Day 12): 62.1 (9.7) U/L
- ALT (1 mg daily, Day 12): 24.2 (21.2) U/L
- AST (1 mg daily, Day 12): 26.2 (29.7) U/L
- Albumin (1 mg daily, Day 12): 43.2 (1.5) g/L
- GGT (1 mg daily, Day 12): 18.0 (9.9) U/L
- Total Bilirubin (1 mg daily, Day 12): 8.0 (2.8) umol/L
- ALP (1 mg daily, Day 14): 61.3 (10.6) U/L
- ALT (1 mg daily, Day 14): 22.8 (17.2) U/L
- AST (1 mg daily, Day 14): 20.2 (13.1) U/L
- Albumin (1 mg daily, Day 14): 43.6 (2.6) g/L
- GGT (1 mg daily, Day 14): 18.0 (10.1) U/L
- Total Bilirubin (1 mg daily, Day 14): 9.1 (2.7) umol/L
- ALP (1 mg daily, Day 15): 59.6 (9.6) U/L
- ALT (1 mg daily, Day 15): 20.8 (15.5) U/L
- AST (1 mg daily, Day 15): 18.3 (9.7) U/L
- Albumin (1 mg daily, Day 15): 42.6 (2.2) g/L
- GGT (1 mg daily, Day 15): 18.2 (11.0) U/L
- Total Bilirubin (1 mg daily, Day 15): 9.2 (2.5) umol/L
- ALP (1 mg daily, Day 17): 63.9 (10.6) U/L
- ALT (1 mg daily, Day 17): 23.2 (12.8) U/L
- AST (1 mg daily, Day 17): 19.3 (6.0) U/L
- Albumin (1 mg daily, Day 17): 46.0 (2.8) g/L
- GGT (1 mg daily, Day 17): 20.1 (11.8) U/L
- Total Bilirubin (1 mg daily, Day 17): 8.2 (4.0) umol/L
- ALP (6 mg daily, Day 1 predose): 64.6 (16.9) U/L
- ALT (6 mg daily, Day 1 predose): 17.6 (5.5) U/L
- AST (6 mg daily, Day 1 predose): 18.9 (4.0) U/L
- Albumin (6 mg daily, Day 1 predose): 45.0 (1.7) g/L
- GGT (6 mg daily, Day 1 predose): 21.6 (10.7) U/L
- Total Bilirubin (6 mg daily, Day 1 predose): 8.9 (3.6) umol/L
- ALP (6 mg daily, Day 2): 66.4 (20.2) U/L
- ALT (6 mg daily, Day 2): 17.8 (3.8) U/L
- AST (6 mg daily, Day 2): 18.0 (3.0) U/L
- Albumin (6 mg daily, Day 2): 45.8 (2.5) g/L
- GGT (6 mg daily, Day 2): 21.7 (9.5) U/L
- Total Bilirubin (6 mg daily, Day 2): 9.8 (4.5) umol/L
- ALP (6 mg daily, Day 3): 65.8 (18.6) U/L
- ALT (6 mg daily, Day 3): 18.9 (4.7) U/L
- AST (6 mg daily, Day 3): 17.8 (2.9) U/L
- Albumin (6 mg daily, Day 3): 46.3 (2.1) g/L
- GGT (6 mg daily, Day 3): 22.3 (11.2) U/L
- Total Bilirubin (6 mg daily, Day 3): 7.4 (3.1) umol/L
- ALP (6 mg daily, Day 4): 67.8 (18.4) U/L
- ALT (6 mg daily, Day 4): 20.9 (5.2) U/L
- AST (6 mg daily, Day 4): 19.8 (4.7) U/L
- Albumin (6 mg daily, Day 4): 47.0 (1.9) g/L
- GGT (6 mg daily, Day 4): 24.0 (11.0) U/L
- Total Bilirubin (6 mg daily, Day 4): 6.9 (2.4) umol/L
- ALP (6 mg daily, Day 6): 63.9 (17.8) U/L
- ALT (6 mg daily, Day 6): 18.9 (4.4) U/L
- AST (6 mg daily, Day 6): 19.7 (4.9) U/L
- Albumin (6 mg daily, Day 6): 45.3 (2.7) g/L
- GGT (6 mg daily, Day 6): 22.0 (10.8) U/L
- Total Bilirubin (6 mg daily, Day 6): 8.4 (4.0) umol/L
- ALP (6 mg daily, Day 8): 64.6 (17.6) U/L
- ALT (6 mg daily, Day 8): 18.6 (2.5) U/L
- AST (6 mg daily, Day 8): 20.8 (6.2) U/L
